Measurements: BindingDB's records for doi:10.1016/S0960-894X(01)80110-4 (1994)
pEC50: −log10 of the molar value.

Assay: Activity against thromboxane A2 receptor evaluated by aggregation of human platelets

Row | pEC50 | Compound
1 | 5.51 | CCCCCC(O)/C=C/[C@@H]1[C@@H](C/C=C\CCCC(N)=O)[C@@H]2C[C@H]1OC(=O)O2 (stereo partly drawn) [(Z)-7-[(1R,5S,6R,7R)-7-((E)-3-Hydroxy-oct-1-enyl)-3-oxo-2,4-dioxa-bicyclo[3.2.1]oct-6-yl]-hept-5-enoic acid amide]
2 | 7.62 | CCCCCC(O)/C=C/[C@@H]1[C@@H](C/C=C\CCCC(=O)O)[C@@H]2C[C@H]1OC(=O)O2 (stereo partly drawn) [(Z)-7-[(1R,5S,6R,7R)-7-((E)-3-Hydroxy-oct-1-enyl)-3-oxo-2,4-dioxa-bicyclo[3.2.1]oct-6-yl]-hept-5-enoic acid]
